Structures can show the parent of a compound that is named as a salt.
Key:
ST024 Ovarian tumors = assay: Antitumor activity in Ovarian ST024 model; format: in vivo, mice
Procedure: (§1) These materials were obtained from and studies were performed at South Texas Accelerated Research Therapeutics, 4383 Medical Drive, San Antonio, Tex. 78229

ST040 Endometrial tumors = assay: Antitumor activity in Endometrial ST040 model; format: in vivo, mice
Procedure: as §1

KB-PR10 tumors = assay: Antitumor activity on paclitaxel resistant KB-PR10 tumors in nu/nu mice; format: in vivo; settings: three times a week for two weeks
Procedure: Four to six week-old female nu/nu mice (Harlan Sprague Dawley, Inc., Indianapolis, Ind.) were maintained on a standard 12 h light-dark cycle and fed ad libitum with folate-deficient chow (Harlan diet #TD00434, Harlan Teklad, Madison, Wis.) for the duration of the experiment. FR-positive paclitaxel resistant KB-PR10 cells were grown continuously as a monolayer, using folate-free RPMI medium (FFRPMI) containing 5% heat-inactivated fetal calf serum (HIFCS) at 37° C. in a 5% CO2/95% air-humidified atmosphere with no antibiotics. KB-PR10 cells (1×10^6 per nu/nu mouse) in 100 μL were injected in the subcutis of the dorsal medial area. […] Mice were treated with 20 mg/kg Paclitaxel, 2 μmol/kg EC145 (See WO2004/069159 for a description of EC145) or 1 μmol/kg Compound I on a three times a week for 2 weeks schedule when the tumors were approximately 100-145 mm^3, 101-129 mm^3 and 100-140 mm^3 in volume, respectively. The mice in the control groups received no treatment. […] All in vivo studies were performed in accordance with the American Accreditation Association of Laboratory Animal Care guidelines.

LU2505 tumors = assay: Antitumor activity in Huprime NSCLC PDX tumor model LU2505; format: in vivo, mice
Procedure: (§2) These studies were performed at Crown Bioscience (Beijing) Inc., Ground Floor, Light Muller Building, Changping Sector of Zhongguancun Scientific Park, No. 21 Huoju Road, Changping District, Beijing, P.R. China.

LU1147 tumors = assay: Antitumor activity in Huprime NSCLC PDX tumor model LU1147; format: in vivo, mice
Procedure: as §2

large KB tumors = assay: Antitumor activity in large KB tumor model; format: in vivo, mice; settings: EC1456 2 μmol/kg, three times a week for two weeks
Procedure: Female Balb/c nu/nu mice were fed ad libitum with folate-deficient chow (Harlan diet #TD01013) for the duration of the experiment. KB tumor cells were inoculated subcutaneously at the right flank of each mouse.
Growth of each s.c. tumor was followed by measuring the tumor two times per week. Tumors were measured in two perpendicular directions using Vernier calipers, and their volumes were calculated as 0.5×L×W^2, where L=measurement of longest axis in mm and W=measurement of axis perpendicular to L in mm.

ST502 TNBC tumors = assay: Antitumor activity in Triple Negative Breast Cancer (TNBC) ST502 model; format: in vivo, mice
Procedure: as §1

ST738 TNBC tumors = assay: Antitumor activity in Triple Negative Breast Cancer (TNBC) ST738 model; format: in vivo, mice
Procedure: as §1

[1] = Phase 1 dose-escalation study: safety, DLT; format: in vivo, human
Procedure: Compound I was administered via IV bolus injection.

[2] = Paclitaxel 15 mg/kg, once a week for two weeks (SIW×2)
[3] = EC1456 2 μmol/kg, two times a week for two weeks (BIW×2)
[4] = EC1456 4 μmol/kg, once a week for two weeks (SIW×2)
[5] = EC1456 2 μmol/kg, two times a week for two weeks
[6] = EC1456 4 μmol/kg, once a week for two weeks
[7] = EC1456 1.5 μmol/kg, two times a week for two weeks (BIW×2)
[8] = EC1456 3 μmol/kg, once a week for two weeks (SIW×2)
[9] = DL1 and DL2 (0.5 and 1.0 mg/m^2, BIW), 6 patients
[10] = Eribulin mesylate 1 mg/kg, once a week for two weeks (SIW×2)

CC(=O)O[C@H]1C(=O)[C@@]2(C)[C@H]([C@H](OC(=O)c3ccccc3)[C@]3(O)C[C@H](OC(=O)[C@H](O)[C@@H](NC(=O)c4ccccc4)c4ccccc4)C(C)=C1C3(C)C)[C@]1(OC(C)=O)CO[C@@H]1C[C@@H]2O [Paclitaxel, reference compound]
anti-tumor activity (ST024 Ovarian tumors; [2]): no anti-tumor activity | anti-tumor activity (ST040 Endometrial tumors; [2]): minimal anti-tumor activity | anti-tumor activity (KB-PR10 tumors; paclitaxel 20 mg/kg): little to no anti-tumor activity

CC(=O)O[C@@]12CO[C@@H]1C[C@H](O)[C@@]1(C)C(=O)[C@H](O)C3=C(C)[C@@H](OC(=O)[C@H](O)[C@@H](NC(=O)OC(C)(C)C)c4ccccc4)C[C@@](O)([C@@H](OC(=O)c4ccccc4)[C@H]21)C3(C)C [Docetaxel]
CR's (LU2505 tumors; Docetaxel 15 mg/kg, one dose): 2 | PR's (LU2505 tumors; Docetaxel 15 mg/kg, one dose): 2 | anti-tumor activity (LU2505 tumors; Docetaxel 15 mg/kg, one dose): some anti-tumor activity | cures (LU2505 tumors; Docetaxel 15 mg/kg, one dose): 2 | animals exhibiting stable disease (LU1147 tumors; Docetaxel 15 mg/kg, one dose): 2 animals | anti-tumor activity (LU1147 tumors; Docetaxel 15 mg/kg, one dose): minimal anti-tumor activity

CCCC(=O)OCN(C(=O)[C@@H](NC(=O)[C@H]1CCCCN1C)C(C)CC)[C@H](C[C@@H](OC(C)=O)c1nc(C(=O)N[C@@H](Cc2ccc(O)cc2)C[C@H](C)C(=O)NNC(=O)OCCSSC[C@@H](NC(=O)[C@H](CCC(=O)NC[C@H](O)[C@@H](O)[C@H](O)[C@H](O)CO)NC(=O)[C@@H](CCC(=O)O)NC(=O)[C@H](CCC(=O)NC[C@H](O)[C@@H](O)[C@H](O)[C@H](O)CO)NC(=O)[C@@H](CCC(=O)O)NC(=O)[C@H](CCC(=O)NC[C@H](O)[C@@H](O)[C@H](O)[C@H](O)CO)NC(=O)CC[C@@H](NC(=O)c2ccc(NCc3cnc4nc(N)[nH]c(=O)c4n3)cc2)C(=O)O)C(=O)O)cs1)C(C)C (some centres unmarked) [EC1456]
anti-tumor activity (large KB tumors): excellent anti-tumor activity | cures (large KB tumors; 1000 mm^3 tumor group): 100% | cures (large KB tumors; 1400 mm^3 tumor group): 100% | anti-tumor activity (ST502 TNBC tumors; [3]): no anti-tumor activity | anti-tumor activity (ST502 TNBC tumors; [4]): no anti-tumor activity | cures (LU2505 tumors; [5]): 7 of 7 | cures (LU2505 tumors; [6]): 7 of 7 | animals exhibiting PR's (ST738 TNBC tumors; [3]): 3 animals | anti-tumor activity (ST738 TNBC tumors; [3]): some anti-tumor activity | cure (ST738 TNBC tumors; [3]): 2 | animals exhibiting PR's (ST738 TNBC tumors; [4]): 5 animals | anti-tumor activity (ST738 TNBC tumors; [4]): some anti-tumor activity | animals exhibiting cures (ST024 Ovarian tumors; [3]): 100% | anti-tumor activity (ST024 Ovarian tumors; [3]): curative | animals exhibiting cures (ST024 Ovarian tumors; [4]): 100% | anti-tumor activity (ST024 Ovarian tumors; [4]): curative | cure (ST024 Ovarian tumors; [4]): 5 | partial response (PR) (ST024 Ovarian tumors; [4]): 2 | animals exhibiting stable disease (LU1147 tumors; [5]): 5 animals | animals exhibiting stable disease (LU1147 tumors; [6]): 6 animals | animal exhibiting PR (ST040 Endometrial tumors; [7]): 1 animal | anti-tumor activity (ST040 Endometrial tumors; [7]): slightly better anti-tumor activity | anti-tumor activity (ST040 Endometrial tumors; [8]): slightly better anti-tumor activity | partial response (PR) (ST040 Endometrial tumors; [8]): 1 | anti-tumor activity (KB-PR10 tumors; 2 μmol/kg): no-anti-tumor activity | PRs (KB-PR10 tumors; EC1456 1 μmol/kg): 60% | antitumor activity (KB-PR10 tumors; EC1456 1 μmol/kg): good antitumor activity | cures (KB-PR10 tumors; EC1456 1 μmol/kg): 40% | Grade 4 or treatment-related Grade 3 TEAEs ([1]; DL1 (0.5 mg/m^2, BIW)): No Grade 4 or treatment-related Grade 3 TEAEs were observed | severity of TEAEs (tinnitus, constipation, asthenia, ataxia, dizziness, orthostatic hypotension) ([1]; DL1 (0.5 mg/m^2, BIW)): mild and self-limited | SAE ([1]; DL1 (0.5 mg/m^2, BIW), Grade 3 vomiting in cycle 6, attributed to a viral syndrome): one | deaths on treatment or within 30 days of study discontinuation, treatment related SAEs, DLTs [1, 9]: No deaths occurred on treatment or within 30 days of study discontinuation, treatment related serious adverse events (SAEs) or DLTs | dose delays, omissions, or reductions due to toxicity [1, 9]: no dose delays, omissions, or reductions due to toxicity | SAEs ([1]; DL2 (1.0 mg/m^2, BIW)): no SAEs | severity of TEAEs (abdominal pain, diarrhea, vomiting, hypoglycemia, pain) ([1]; DL2 (1.0 mg/m^2, BIW)): mild and self-limited | ≧Grade 3 TEAEs regardless of relatedness ([1]; DL2 (1.0 mg/m^2, BIW)): no ≧Grade 3 TEAEs observed | cumulative or late-emerging treatment-related AEs ([1]; either dose level (DL1, DL2)): no evidence of cumulative or late-emerging treatment-related AEs

C=C1C[C@@H]2CC[C@@]34C[C@H]5O[C@H]6[C@@H](O3)[C@H]3O[C@H](CC[C@@H]3O[C@H]6[C@H]5O4)CC(=O)C[C@@H]3[C@@H](OC)[C@@H](C[C@H](O)CN)O[C@H]3C[C@H]3O[C@@H](CC[C@@H]1O2)C[C@@H](C)C3=C [Eribulin mesylate, reference compound]
animal exhibiting PR (ST502 TNBC tumors; [10]): 1 animal | anti-tumor activity (ST502 TNBC tumors; [10]): minimal anti-tumor activity | PR's (ST738 TNBC tumors; [10]): 2 | anti-tumor activity (ST738 TNBC tumors; [10]): some anti-tumor activity

— patent US20170290878A1, “METHODS OF TREATING CANCER WITH TUBULYSIN CONJUGATES” (Endocyte, Inc., priority 2014, published 2017)
